Reference: patent US20050209157A1, “Short bioactive peptides and methods for their use” (priority 2001, published 2005)
Where two headings read alike, the source gives them in different places. No end group written: not given here.

Key:
in vitro [1] = type: cell-based, human; settings: human, human red blood cells
[2] = Solubility of peptides in sheep serum; type: physicochemical
Pseudomonas aeruginosa = assay: Serum inactivation of peptides, serum MIC; type: cell-based; settings: for MIC 30 min treatment: sheep serum 37° C. 30 minutes; for MIC 2 hr treatment: sheep serum 37° C. 2 hours
Procedure: Subsequently, the serum MICs against Pseudomonas aeruginosa were conducted to determine extent of serum inactivation of the peptides.

P. aeruginosa H374 = type: cell-based, Pseudomonas aeruginosa; settings: for MIC Cm-comb.: MIC of chloramphenicol with peptide at ¼ MIC; for MIC Nal-comb.: MIC of nalidixic acid with peptide at ¼ MIC; for FIC Index: 0.5 or less = synergy
Outline: (§1)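 Synergy against efflux-mutant strains: two-fold dilutions of nalidixic acid or chloramphenicol tested with peptide held at ¼ of its MIC.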

P. aeruginosa H774 = type: cell-based, Pseudomonas aeruginosa; settings: P. aeruginosa H744; nalidixic acid + peptide at ¼ MIC; 0.5 or less = synergy
Outline: as §1

P. aeruginosa = type: cell-based, Pseudomonas aeruginosa; settings: P. aeruginosa H744; MIC of nalidixic acid with peptide at ¼ MIC
Outline: as §1

[3] = Leukocyte (WBC) inhibition, toxicity LD50; type: cell-based, human; settings: male, human, human leukocytes (buffy coat cells, mostly PBMCs); Table 41, lower part
Procedure: In vitro viability of human leukocyte cells in the presence of different peptides at different concentrations was determined by an Alamar Blue protocol. Alamar Blue (Promega, Madison, Wis.) is an indicator dye, formulated to measure quantitatively the proliferation and cytotoxicity of the cells. The dye consists of an oxidation-reduction (redox) indicator that yields a calorimetric change and a fluorescent signal in response to cellular metabolic activity.
Assay protocol: Blood from a human was drawn and centrifuged at 1500 rpm for 15 minutes at room temperature. The buffy coat cells at the plasma-red blood cell interface were aspirated. Buffy coat cells (mainly lymphocyte cells) were then transferred into 15 ml centrifuge tubes containing 5 ml of RPMI-1640 medium+10% Fetal Bovine Serum (Gibco, Grand Island, N.Y.). Additional medium was added to the tubes to bring the volume up to 10 ml. The buffy coat suspension was then carefully layered on 5 ml of Histopaque (Sigma Chemical Co., St. Louis, Mo.) and centrifuged at 1500 rpm for 30 minutes at room temperature. The interface which is mostly PBMCs (peripheral mononuclear cells) was aspirated and transferred to a 15 ml conical centrifuge tube and, resuspended in 2 ml cold RPMI-1640 and brought up to 15 ml with cold RPMI-1640 medium. Cells were centrifuged at 1500 rpm for 10 minutes. The supernatant was then aspirated and discarded. The cell pellet was re-suspended in 1 ml of cold RPMI 1640 and brought up to 15 ml with RPMI medium. This step was repeated twice, except that in the last step, the cells were resuspended with 1 ml of cold RPMI-1640 medium and cell counts were performed with a hemocytometer according to the Sigma cell culture catalogue.
Pokewood mitogen was used as a control along with positive and negative controls. Negative control cells were killed with 70% methanol. Positive (+) control cells were incubated in RPMI medium (untreated). […] of AlamarBlue was added to the cells, and readings were taken after 24 hours, 48 hours, 72 hours, and 96 hours using a fluorimeter (excitation 544/transmission 590 nm).
In choosing a peptide for possible treatment of a given indication it is important to match the therapeutic activity and specificity of the peptide with its possible toxic properties.
The protocols for WBC and WI38 stimulation have been discussed above. The RBC protocol follows Table 24.

in vitro [4] = settings: human, WI38 normal lung fibroblast cells
MCF7 = assay: Anti-cancer assay, MTT, LD50; type: cell-based; settings: for MCF7 LD50: Table 41, lower part
From the text: (§2) Numbers are LD50 values (μg/mL).

[5] = tested on: MCF7 line of breast cancer cells; settings: for MCF7 LD50: agent alone; for Active agent LD50 on MCF7 cells: Total conc.: peptide plus tamoxifen concentration at LD50; for Active agent LD50 on MCF7 cells: Peptide conc.: peptide with tamoxifen, peptide concentration at LD50; for Active agent LD50 on MCF7 cells: Tamox. conc.: tamoxifen concentration at LD50 (peptide with tamoxifen; tamoxifen alone in its own line)
[6] = tested on: clinical tobramycin resistant strain 960890198-3c; assay: Activity against drug resistant strains; type: cell-based; settings: clinical tobramycin resistant strain; Table 47
Procedure: (§3) Peptides were assayed for their activity against tobramycin sensitive and resistant strains.

[7] = tested on: tobramycin sensitive (ts) Pseudomonas ATCC 27853; assay: Activity against drug resistant strains; type: cell-based; settings: tobramycin sensitive strain; Table 47
Procedure: as §3

[8] = tested on: yeast (Saccharomyces cerevisiae); assay: Antimicrobial assay I, yeast assay in RPMI 1640; type: cell-based; settings: RPMI 1640 media
BMKC = assay: Anti-cancer assay, MTT, LD50; type: cell-based; settings: BMKC cloned melanoma line, 24 hours with peptide
From the text: as §2

PC3 = assay: Anti-cancer assay, MTT, LD50; type: cell-based; settings: 24 hours with peptide, prostate adenocarcinoma
From the text: as §2

H1299 = assay: Anti-cancer assay, MTT, LD50; type: cell-based; settings: 24 hours with peptide, lung large cell carcinoma
From the text: as §2

HeLaS3 = assay: Anti-cancer assay, MTT, LD50; type: cell-based; settings: 24 hours with peptide, cervical carcinoma
From the text: as §2

SW480 = assay: Anti-cancer assay, MTT, LD50; type: cell-based; settings: SW480 colon adenocarcinoma line, 24 hours with peptide
From the text: as §2

WI38 = settings: MTT, 24 hours with peptide; normal fibroblast line
[9] = tested on: Staphylococcus aureus ATCC 6538; assay: Antimicrobial assay I, MIC by OD measurement; type: cell-based; settings: 37° C. for 24 hours, absorbance 620 nm
[10] = tested on: Pseudomonas aeruginosa ATCC 9027; assay: Antimicrobial assay I, MIC by OD measurement; type: cell-based; settings: 37° C. for 24 hours, absorbance 620 nm
[11] = pH 7, hemolytic assay, concentration at 50% hemolysis, 1 hour at 37° C., read-out: LD50
[12] = chloramphenicol + peptide at ¼ MIC
[13] = nalidixic acid + peptide at ¼ MIC, FIC=0.25+MIC comb/MIC alone
[14] = pH 7, Table 41, lower part, read-out: RBC LD50
[15] = WI38 LD50, Table 41, lower part

Row | Substance | HC50 at 1 h (in vitro [1]; [11]) | Solubility ([2]; sheep serum, […], 70% serum) | MIC 30 min treatment (Pseudomonas aeruginosa; first of two columns) | MIC 30 min treatment (Pseudomonas aeruginosa; second of two columns) | MIC 2 hr treatment (Pseudomonas aeruginosa; first of two columns) | MIC 2 hr treatment (Pseudomonas aeruginosa; second of two columns) | MIC Cm-comb. (P. aeruginosa H374) | MIC Nal-comb. (P. aeruginosa H374) | FIC Index (P. aeruginosa H374; [12]) | FIC Index (P. aeruginosa H374; [13]) | HC50 at 1 h (in vitro [1]; [14]) | CC50 [3] | CC50 at 24 h (in vitro [4]; [15]) | MCF7 LD50 (MCF7) | MCF7 LD50 [5] | Active agent LD50 on MCF7 cells: Total conc. [5] | Active agent LD50 on MCF7 cells: Peptide conc. [5] | Active agent LD50 on MCF7 cells: Tamox. conc. [5] | also measured
1 | VALALKALKKALKKLKKALKKAL-OH [P508] | 70 µg/mL | Soluble | 40 µg/mL | 20 µg/mL | 40 µg/mL | 20 µg/mL | 8 µg/mL | 5000 µg/mL | 0.75 | 1.25 |  |  |  |  |  |  |  |  | Solubility ([2]; sheep, 70% sheep serum): ≥ 1280 µg/mL; change of activity by exposure to serum (serum MIC against Pseudomonas aeruginosa) (Pseudomonas aeruginosa; sheep serum, […], 37° C. for 30 minutes or 2 hours): only modestly decreased
2 | FAKKLAKKLKKLAKKLAK-NH2 [P69] |  | Precipitated | 20 µg/mL | 20 µg/mL | 20 µg/mL | 20 µg/mL | 8 µg/mL | 2500 µg/mL | 0.75 | 0.75 |  |  |  |  |  |  |  |  | FIC Index (P. aeruginosa H774): 0.75; MIC Nal-comb. (P. aeruginosa): 312 µg/mL
3 | FALALKALKKAL-NH2 [106 (144)] |  |  |  |  |  |  |  |  |  |  | 600 µg/mL | 320 µg/mL | 740 µg/mL | 310 µg/mL | 310 µg/mL | 42.7 µg/mL | 35 µg/mL | 7.7 µg/mL | 
4 | FAKALAKLAKKLL-NH2 [P92] | 300 µg/mL |  |  |  |  |  |  |  |  |  |  |  |  |  |  |  |  |  | activity against tr Pseudomonas 960890198-3c [6]: 50; activity against ts Pseudomonas 27853 [7]: 63; yeast (MIC or MFC) [8]: 50 µg/mL; CC50 at 24 h (in vitro [4]; LD50 WI38, WI38 normal lung fibroblast line, MTT, 24 hours with peptide): 43 µg/mL; LD50 BMKC (BMKC): 46 µg/mL; PC3 LD50 (PC3): 83 µg/mL; H1299 LD50 (H1299): 25 µg/mL; LD50 MCF7 (MCF7; MCF7 breast adenocarcinoma line, MTT, 24 hours with peptide): 23 µg/mL; HeLaS3 LD50 (HeLaS3): 670 µg/mL; LD50 SW480 (SW480): 51 µg/mL; WI38 LD50 (WI38): 43 µg/mL; staph6538 (MIC) [9]: 5 µg/mL; paerug9027 (MIC) [10]: 5 µg/mL
5 | FAKKLAKKLKKLAKKLAK-NH2 [164 (69)] |  |  |  |  |  |  |  |  |  |  | 900 µg/mL | 140 µg/mL | 60 µg/mL | 79 µg/mL | 79 µg/mL | 7.1 µg/mL | 2.5 µg/mL | 4.6 µg/mL | 
